From publication PMC8286840, “Identifying SARS-CoV-2 antiviral compounds by screening for small molecule inhibitors of Nsp3 papain-like protease” (Biochemical Journal, 2021)
Counter-ions that a name gives are not always drawn. Like-named read-outs stand apart in the source and are kept apart here. Where a SMILES comes first, the peptide text is derived from it.

Key:
[1] = molecular target: T1, SARS-CoV-2 PLpro (nsp3 1564–1878) (Severe acute respiratory syndrome coronavirus 2, UniProt P0DTD1); experiment: biochemical; design: FRET-quenched peptide (Pro3) cleavage by PLpro, 10 min pre-incubation, slope over 20 min, normalised to no-compound control; conditions: low concentration screen, read-out: % of control remaining
[2] = molecular target: T1, SARS-CoV-2 PLpro (nsp3 1564–1878); experiment: biochemical; design: FRET-quenched peptide (Pro3) cleavage by PLpro, 10 min pre-incubation, slope over 20 min, normalised to no-compound control; conditions: high concentration screen, read-out: % of control remaining

`NCc1c[nH]c(=S)n1[C@@H]1CCc2c(F)cc(F)cc2C1` [(R)-Nepicastat HCl] gave a remaining activity at 1.25 µM ([1]; Well no.=8886) of 91.4% and a remaining activity at 3.75 µM ([2]; Well no.=8886) of 92%.

For `N[C@@H](Cc1ccc(O)c(I)c1)C(=O)O` [H-Tyr(3-I)-OH], the remaining activity at 1.25 µM ([1]; Well no.=7019) was 99.7% and the remaining activity at 3.75 µM ([2]; Well no.=7019) was 99.6%.

In the case of `CCCCc1c(-c2ccc(OC)cc2)[nH]c2nccnc12` [Aloisine, RP106], the remaining activity at 1.25 µM ([1]; Well no.=2320) is reported as 96.9% and the remaining activity at 3.75 µM ([2]; Well no.=2320) is reported as 94.7%.

`COc1ccc2[nH]cc(C3=CCNCC3)c2c1` [RU 24969] showed a remaining activity at 1.25 µM ([1]; Well no.=7997) of 104% and a remaining activity at 3.75 µM ([2]; Well no.=7997) of 102%.

`CCCCC/C=C\C\C=C/C=C/C=C/[C@@H](SCC(NC(C)=O)C(=O)O)[C@@H](O)CCCC(=O)O` (some centres unmarked) [N-Acetyl-leukotriene E4] was tested, and the remaining activity at 1.25 µM ([1]; Well no.=4435) was 101% and the remaining activity at 3.75 µM ([2]; Well no.=4435) was 102%.

`CN1C(C(=O)Nc2ccccn2)=C(O)c2ccccc2S1(=O)=O` [Piroxicam] gave a remaining activity at 1.25 µM ([1]; Well no.=862) of 99.8%, a remaining activity at 1.25 µM ([1]; Well no.=1566) of 98.4% and a remaining activity at 3.75 µM ([2]; Well no.=862) of 103%. It also gave a remaining activity at 3.75 µM ([2]; Well no.=1566) of 99.8%.

`C[C@@H](O)[C@H]1C(=O)N2C(C(=O)[O-])=C(SC3Cn4cnc[n+]4C3)[C@H](C)[C@H]12` (some centres unmarked) [Biapenem] gave a remaining activity at 1.25 µM ([1]; Well no.=5197) of 99.1% and a remaining activity at 3.75 µM ([2]; Well no.=5197) of 100%.

`c1ccc(-c2[nH]ncc2-c2ccnc3ccccc23)nc1` [LY 364947 - 4-[3-(2-Pyridinyl)-1H-pyrazol-4-yl]-quinoline] was tested, and the remaining activity at 1.25 µM ([1]; Well no.=2622) was 96.3% and the remaining activity at 3.75 µM ([2]; Well no.=2622) was 101%.

`COc1ccc(-n2[nH]c3c(cnc4ccccc43)c2=O)cc1` [CGS 9895] gave a remaining activity at 1.25 µM ([1]; Well no.=5590) of 99.6% and a remaining activity at 3.75 µM ([2]; Well no.=5590) of 96.5%.

`CCN(CC)C(C)C(=O)N1c2ccccc2Sc2ccccc21` (stereo not drawn) [10-(alpha-Diethylaminopropionyl)-phenothiazine hydrochloride] showed a remaining activity at 1.25 µM ([1]; Well no.=531) of 104% and a remaining activity at 3.75 µM ([2]; Well no.=531) of 99.7%.

`COc1ccc(C[C@@H](C)NC[C@H](O)c2ccc(O)c(NC=O)c2)cc1` [Formoterol hemifumarate] showed a remaining activity at 1.25 µM ([1]; Well no.=5014) of 109% and a remaining activity at 3.75 µM ([2]; Well no.=5014) of 104%.

`CC(=O)N[C@@H](Cc1ccccc1)C(=O)O` [NSC 45699] was tested, and the remaining activity at 1.25 µM ([1]; Well no.=8710) was 107% and the remaining activity at 3.75 µM ([2]; Well no.=8710) was 106%.

Compound `Cn1c(=O)c(-c2c(Cl)cccc2Cl)cc2cnc(Nc3cccc(C(=O)O)c3)nc21` [PD173955-Analog1] has a remaining activity at 1.25 µM ([1]; Well no.=2849) of 101% and a remaining activity at 3.75 µM ([2]; Well no.=2849) of 99.7%.

`C[C@H]1CC[C@]2(NC1)O[C@H]1C[C@H]3[C@@H]4CC[C@H]5C[C@@H](O)CC[C@]5(C)[C@H]4CC[C@]3(C)[C@H]1[C@@H]2C` [Tomatidine] showed a remaining activity at 1.25 µM ([1]; Well no.=3186) of 94.5% and a remaining activity at 3.75 µM ([2]; Well no.=3186) of 99.4%.

Compound `C[C@H]1CNCCc2ccc(Cl)cc21` [Lorcaserin (Hydrochloride)] has a remaining activity at 1.25 µM ([1]; Well no.=6954) of 99.1% and a remaining activity at 3.75 µM ([2]; Well no.=6954) of 93.7%.

`C[C@H](N)C(=O)N1C[C@H](CCCB(O)O)[C@](N)(C(=O)O)C1` [CB-1158 (dihydrochloride)] was tested, and the remaining activity at 1.25 µM ([1]; Well no.=8743) was 100% and the remaining activity at 3.75 µM ([2]; Well no.=8743) was 99.3%.

`Cc1[nH]c(/C=C2\C(=O)Nc3ccc(S(=O)(=O)N(C)c4cccc(Cl)c4)cc32)c(C)c1C(=O)N1CCN(C)CC1` [SU11274] gave a remaining activity at 1.25 µM ([1]; Well no.=8164) of 95.8% and a remaining activity at 3.75 µM ([2]; Well no.=8164) of 94.4%.

`CC(C)C[C@H](NC(=O)[C@@H](O)[C@H](N)Cc1ccccc1)C(=O)O` [Bestatin] gave a remaining activity at 1.25 µM ([1]; Well no.=8068) of 98.5% and a remaining activity at 3.75 µM ([2]; Well no.=8068) of 97.8%.

For `CCNC(=O)[C@@H]1CCCN1C(=O)[C@H](CCCNC(=N)N)NC(=O)[C@H](CC(C)C)NC(=O)[C@@H](CC(C)C)NC(=O)[C@H](Cc1ccc(O)cc1)NC(=O)[C@H](CO)NC(=O)[C@H](Cc1c[nH]c2ccccc12)NC(=O)[C@H](Cc1c[nH]cn1)NC(=O)[C@@H]1CCC(=O)N1` [Leuprolide (Acetate)], the remaining activity at 1.25 µM ([1]; Well no.=6469) was 104% and the remaining activity at 3.75 µM ([2]; Well no.=6469) was 104%.

With `CCCCC/C=C\C[C@@H](O)/C=C/C=C\CCC(=O)O` [Tetranor-12(R)-HETE] the remaining activity at 1.25 µM ([1]; Well no.=4563) was 97% and the remaining activity at 3.75 µM ([2]; Well no.=4563) was 97.6%.

In the case of `CN(C)c1ncnc2c1ncn2[C@@H]1O[C@H](CO)[C@@H](O)[C@H]1O` [N6,N6-Dimethyladenosine], the remaining activity at 1.25 µM ([1]; Well no.=7854) is reported as 97.9% and the remaining activity at 3.75 µM ([2]; Well no.=7854) is reported as 102%.

For `CCN1C[C@]2(COC)CC[C@H](OC)[C@@]34C1[C@]1(OCO[C@@]15C[C@H](OC)[C@H]1C[C@@H]3[C@@H]5[C@H]1OC)[C@@H](O)[C@H]24` [Delcorine], the remaining activity at 1.25 µM ([1]; Well no.=3109) was 98.2% and the remaining activity at 3.75 µM ([2]; Well no.=3109) was 101%.

In the case of `N=C(N)NCCC[C@H](N)C(=O)O` [L-Arginine], the remaining activity at 1.25 µM ([1]; Well no.=351) is reported as 97.9%, the remaining activity at 1.25 µM ([1]; Well no.=7205) is reported as 102% and the remaining activity at 3.75 µM ([2]; Well no.=351) is reported as 98.7%. It also gave a remaining activity at 3.75 µM ([2]; Well no.=7205) of 99.2%.

Work on `COC(=O)[C@H](Cc1ccccc1)NC(=O)[C@@H](N)CC(=O)O` [Aspartame] (H-Asp-Phe-OMe) yielded a remaining activity at 1.25 µM ([1]; Well no.=5048) of 100%, a remaining activity at 1.25 µM ([1]; Well no.=7302) of 102% and a remaining activity at 3.75 µM ([2]; Well no.=5048) of 101%. It also gave a remaining activity at 3.75 µM ([2]; Well no.=7302) of 102%.

For `COC(=O)[C@@H](N)CSC/C=C(\C)CC/C=C(\C)CCC=C(C)C` [S-Farnesyl-L-cysteine methylester], the remaining activity at 1.25 µM ([1]; Well no.=4566) was 98.6% and the remaining activity at 3.75 µM ([2]; Well no.=4566) was 99.1%.

`CC(C)NCC(O)COc1ccc(CC(N)=O)cc1` (centres unmarked) [Atenolol] was tested, and the remaining activity at 1.25 µM ([1]; Well no.=2131) was 103%, the remaining activity at 1.25 µM ([1]; Well no.=7671) was 97.3% and the remaining activity at 3.75 µM ([2]; Well no.=2131) was 104%. The remaining activity at 3.75 µM ([2]; Well no.=7671) was 98.5%.

Work on `CC(Oc1c(Cl)cccc1Cl)C1=NCCN1` (centres unmarked) [Lofexidine.HCl] yielded a remaining activity at 1.25 µM ([1]; Well no.=1971) of 101% and a remaining activity at 3.75 µM ([2]; Well no.=1971) of 102%.

`OC[C@H]1NC[C@H](O)[C@@H](O)[C@@H]1O` [1-Deoxynojirimycin hydrochloride] was tested, and the remaining activity at 1.25 µM ([1]; Well no.=586) was 102% and the remaining activity at 3.75 µM ([2]; Well no.=586) was 102%.

`Cc1cc(C(=O)O)ccc1O` [4-Hydroxy-3-methylbenzoic acid] gave a remaining activity at 1.25 µM ([1]; Well no.=6723) of 100% and a remaining activity at 3.75 µM ([2]; Well no.=6723) of 101%.

`CN(C)CCC(c1ccc(Cl)cc1)c1ccccn1` (centres unmarked) [Chlorpheniramine] was tested, and the remaining activity at 1.25 µM ([1]; Well no.=2229) was 93.7% and the remaining activity at 3.75 µM ([2]; Well no.=2229) was 95.1%.

Compound `COc1ccc(C(=O)N2CCCC2=O)cc1` [Aniracetam] has a remaining activity at 1.25 µM ([1]; Well no.=156) of 102%, a remaining activity at 1.25 µM ([1]; Well no.=1889) of 95.1% and a remaining activity at 3.75 µM ([2]; Well no.=156) of 108%. The remaining activity at 3.75 µM ([2]; Well no.=1889) was 95.2%.

In the case of `CC1(C)O[C@@H]2C[C@H]3[C@@H]4C[C@H](F)C5=CC(=O)C=C[C@]5(C)[C@@]4(F)[C@@H](O)C[C@]3(C)[C@]2(C(=O)CO)O1` [Fluocinolone (Acetonide)], the remaining activity at 1.25 µM ([1]; Well no.=6667) is reported as 108% and the remaining activity at 3.75 µM ([2]; Well no.=6667) is reported as 111%.
